# Assays:
# [1] = system: refractory neoplasms (various solid tumors); experiment: open label, dose-finding trial (Accelerated Titration Design) in subjects with refractory neoplasms; type: in vivo, human
# Procedure: According to the study design, the cohort was to be expanded in the case of moderate toxicity to include more subjects and additional dose increments (40%) until the maximum dose of 5 mg/kg or dose limiting toxicity was achieved.
# Subjects were dosed daily for 4 consecutive weeks (not including weekends and holidays) and dose limiting toxicity was assessed after subjects have completed their treatment.
# Toxicity reported during the study was graded according to the National Cancer Institute (NCI) CTCAE (Common Terminology Criteria for Adverse Events) v3.0. A Dose Limiting Toxicity (DLT) was defined as follows: • a) Any grade ≧3 reversible non-haematologic treatment-related toxicity OR • b) Any irreversible grade ≧2 non-haematologic treatment-related toxicity OR • c) Any grade ≧4 haematologic treatment-related toxicity lasting longer than 10 days during the 4 weeks of treatment
# For the purpose of this study, Moderate Toxicity has been defined according to NCI CTCAE v3.0. Adverse events were treated when they occurred. No investigational or commercial agents or therapies were administered with the intent to treat the subject's malignancy during the period that the subjects were in the study.
# [2] = system: rat HCC cell line, CRL-1601; conditions: 12.5 or 25 mg/kg/day s.c. for 4 weeks
# Source text: The CXCR4 antagonists used was the short peptide dimer antagonist CTCE-9908 (SEQ ID NO.1). A rat orthotopic hepatocellular carcinoma (HCC) model was established by injection of a rat HCC cell line, CRL-1601, into the left lobe of the liver of Buffalo rats. Since the rat HCC cell line was generated from Buffalo rats, in vivo formed tumor in the Buffalo rats can mimic the clinical setting. […]
# The first group (control) received sham operation followed by water for irrigation. […] The dimension of the primary tumour was measured along with liver function. The microvessel density, proliferation index of tumor cells, apoptotic state and morphology of tumour cells in primary tumour and metastases were analysed by immunohistochemistry. […] The number of metastatic tumour loci was analysed. Plasma SDF-1 was analyzed by ELISA. […]
# This study examined a rat model of hepatocellular carcinoma (HCC) that mimics transarterial chemoembolization in the clinical setting. […] One week after the last CTCE-9908 treatment, the rats were sacrificed and assessments of the tumor as well as the circulating cells were made by luminescence and flow cytometry, respectively.
substance,measurement,setting,value
KGVSLSYR-X-RYSLSVGK [CTCE-9908],number of Moderate Toxicities observed during the study,"[1]; NCI CTCAE v3.0, whole study",eight
same,"overall stable disease, number of subjects","[1]; at the end of their last treatment cycle, 1, 2.5 and 5 mg/kg/day doses",five
same,Dose Limiting Toxicity (DLT),"[1]; daily dosing for 4 consecutive weeks, up to 5 mg/kg, NCI CTCAE v3.0",no DLT was reported
same,tumor markers,[1]; one ovarian cancer subject and one colorectal cancer subject,reduction in tumor markers
same,duration of stable disease,[1]; one small bowel subject,up to seven
same,Maximum Tolerated Dose (MTD),"[1]; subjects with refractory neoplasms, up to 5 mg/kg",not established
same,tumor regression,"[2]; CTCE-9908 in combination with hepatic artery ligation (HAL), luminescence and necropsy",up to 80%
same,tolerability,[2]; rats,well tolerated by all rats
